# ± gives the expanded uncertainty stated by the source.
# Conditions: DTA
smiles,measurement,value
CC(=O)[O-].CCn1cc[n+](C)c1 [1-ethyl-3-methylimidazolium acetate],Glass transition temperature,-75.50 ± 3 °C

# — the NIST ThermoML archive (doi:10.1021/je300768j)
